# Assay results from patent US20070128193A1, “GLP-1 agonists, compositions, methods and uses” (priority 2004, published 2007).
# Where no end group is shown, it is not given here.
# What was measured:
# [1] = tested on: RINm cells; assay: Insulin secretion in RINm cells; assay type: cell-based; conditions: peptides 0-5 nM; mimetibodies 5 or 50 nM
# Method: GLP-1 mimetibody causes insulin secretion in RINm cells. To test the effect of GLP-1 mimetibody in insulin secretion, RINm cells were treated with increasing concentrations of GLP-1 (7-36) peptide (0-5 nM) (FIG. 6A), exendin-4 peptide (0-5 nM) (FIG. 6A), or various GLP-1 mimetibodies (5 or 50 nM) and the amount of insulin secreted was measured via ELISA. All GLP-1 mimetibodys tested had activities in stimulating insulin secretion in RINm cells.
# [2] = tested on: db/db mice; assay: Fasting blood glucose in db/db mice; assay type: in vivo
# Method: GLP-1 mimetibody lowers glucose level in db/db mice. […] Blood glucose was monitored 0.5, 1, 2, 3, and 4 hours post-dosing. […] In addition, consistent with the mechanism of action for GLP-1, the maximum glucose lowering effect achieved at 0.19 nmol was not enhanced by a higher dose of the GLP-1 mimetibody (1.9 nmol). The maximum glucose lowering effect maintained blood glucose values within the normal range.
# [3] = tested on: control HEK293 cells; assay: FACS binding assay, control HEK293 cells; conditions: 20 nM, 2 hours at 4° C.
# [4] = Human serum stability assay; assay type: in vitro ADME; conditions: 30 nM, 37° C.
# Method: Human Serum stability assay. The stability of the GLP-1 mimetibody in serum was also measured to ensure that other serum proteases were not able to cleave and inactivate the GLP-1 mimetibody. Briefly, GLP1 peptide or the GLP1 mimetibody (30 nM) was incubated in human serum at 37° C. After various times, samples were evaluated to determine the amount of intact peptide or mimetibody. The reactions were quenched with a DPP-IV inhibitor (100 μM, Linco), and the samples were analyzed using the GLP-1 Active ELISA from Linco.
# [5] = molecular target: T1, GLP-1R (Homo sapiens, UniProt P43220); assay: FACS binding assay, HEK293 cells over-expressing GLP-1R; conditions: 20 nM, 2 hours at 4° C.
# T1 construct: expressed in transfected cells; host or cells: HEK293
# Method: FACS Binding Assay. The activity of GLP-1 mimetibody was tested in an in vitro FACS binding assay. To determine whether the GLP-1 mimetibody binds GLP-1R, HEK293 cells (1×10^6 cells) over-expressing GLP-1R were incubated with GLP-1 mimetibody (20 nM) for 2 hours at 4° C. The cells were washed, and a fluorescently labeled secondary detection antibody (1 μg/mL goat anti-human IgG, Fc gamma specific) was added for 30 minutes at 4° C. The fluorescence intensity of the cells was monitored via flow cytometry.
# [6] = molecular target: T2, DPP-IV (Homo sapiens, UniProt P27487); assay: DPP-IV cleavage assay; assay type: in vitro ADME; conditions: 1.2 nM, DPP-IV 1 μg/mL, room temperature, 0-40 minutes
# T2 construct: purchased R&D Systems
# Method: DPP-IV cleavage assay. Since GLP-1 is rapidly inactivated by DPP-IV, an in vitro assay was established to quantitate intact (i.e. uncleaved) GLP-1 mimetibody. Briefly, GLP-1 mimetibody or peptide (1.2 nM) was incubated at room temperature with DPP-IV (1 μg/mL, R&D Systems). After various times (0, 5, 10, 15, 20, 30, 40 minutes), a DPP-IV inhibitor (100 μM, Linco) was added to quench the reaction. The amount of intact GLP-1 mimetibody or peptide was measured using the GLP-1 Active ELISA (Linco) and the GLP-1 mimetibody or peptides for the respective standard curves.
# [7] = administered subcutaneously; cited from earlier work
# T1 sequence (P43220 24-463, species assumed): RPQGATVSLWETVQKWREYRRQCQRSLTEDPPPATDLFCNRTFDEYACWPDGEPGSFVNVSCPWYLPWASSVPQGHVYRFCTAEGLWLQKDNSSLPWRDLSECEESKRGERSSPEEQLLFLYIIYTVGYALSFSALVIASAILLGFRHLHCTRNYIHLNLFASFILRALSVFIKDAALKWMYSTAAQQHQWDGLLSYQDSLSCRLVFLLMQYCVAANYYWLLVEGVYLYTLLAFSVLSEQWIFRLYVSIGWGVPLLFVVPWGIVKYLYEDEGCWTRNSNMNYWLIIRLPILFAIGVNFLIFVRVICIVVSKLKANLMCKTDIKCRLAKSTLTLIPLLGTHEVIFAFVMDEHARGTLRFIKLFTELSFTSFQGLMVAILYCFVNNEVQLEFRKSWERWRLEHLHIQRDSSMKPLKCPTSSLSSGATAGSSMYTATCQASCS
# T2 sequence (P27487 whole entry, species assumed): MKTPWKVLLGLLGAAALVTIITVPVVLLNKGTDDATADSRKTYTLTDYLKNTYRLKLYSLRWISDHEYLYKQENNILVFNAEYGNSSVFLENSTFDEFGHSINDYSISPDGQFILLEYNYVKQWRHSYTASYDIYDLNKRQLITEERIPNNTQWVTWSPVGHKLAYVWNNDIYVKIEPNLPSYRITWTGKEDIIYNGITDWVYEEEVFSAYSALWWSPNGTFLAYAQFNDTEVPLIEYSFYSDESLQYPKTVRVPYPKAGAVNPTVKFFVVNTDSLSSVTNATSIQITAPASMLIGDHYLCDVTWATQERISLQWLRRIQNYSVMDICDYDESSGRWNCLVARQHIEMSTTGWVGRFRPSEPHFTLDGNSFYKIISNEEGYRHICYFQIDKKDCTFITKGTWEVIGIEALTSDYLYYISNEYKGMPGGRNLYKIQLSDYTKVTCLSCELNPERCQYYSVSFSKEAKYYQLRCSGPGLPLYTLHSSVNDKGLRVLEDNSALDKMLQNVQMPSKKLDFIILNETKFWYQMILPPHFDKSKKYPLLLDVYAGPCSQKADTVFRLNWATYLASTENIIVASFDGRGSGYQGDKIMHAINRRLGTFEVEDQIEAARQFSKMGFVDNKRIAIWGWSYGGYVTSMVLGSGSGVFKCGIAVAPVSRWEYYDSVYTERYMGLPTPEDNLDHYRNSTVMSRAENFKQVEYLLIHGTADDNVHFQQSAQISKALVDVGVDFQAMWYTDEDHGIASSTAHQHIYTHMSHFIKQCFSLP
substance,measurement,setting,value
"GLP-1 (7-36) peptide: wild-type GLP-1 (7-36) peptide (HAEGTFTSDVSSYLEGQAAKEFIAWLVKGR; ends and bridges not checked; UniProt P01275 98-127, looked up, fragment)",stimulation of insulin secretion in RINm cells,[1],stimulates insulin release in RINm cells
GLP-1 peptide: GLP-1 peptide used as comparator [reference compound],blood glucose over 4 hours post-dosing,"[2]; db/db mice fasted two hours, intravenous, mimetibody dose 100-fold lower than peptide dose","lowered blood glucose at 30 minutes, but by 60 minutes, the blood glucose began to increase again"
"GLP-1 mimetibody: GLP-1 peptide (7-36), Gly-Ser linker, J region, IgG1 hinge, CH2 and CH3 construct (SEQ ID NO:2)",binding to control HEK293 cells (FACS),[3],not to control HEK293 cells
same,remained intact in human serum after 24 hours,[4],> 90%
same,lowering of fasting blood glucose compared to control animals,[2]; doses ranging from 0.019 to 1.9 nmol,effective in lowering the fasting blood glucose
same,dose at which maximum glucose lowering effect was achieved,[2]; not enhanced by 1.9 nmol,0.19 nmol
same,binding to HEK293 cells over-expressing GLP-1R (FACS),[5],binds to HEK293 cells over-expressing GLP-1R
same,resistance to cleavage by DPP-IV relative to the GLP-1 peptide,[6],significantly more resistant to cleavage by DPP-IV
GLP-1 (7-36) amide: GLP-1 (7-36) amide,time action,[7],about 50 minutes
"exendin-4 peptide: exendin-4 peptide, positive control",stimulation of insulin secretion in RINm cells,[1],stimulates insulin release in RINm cells
